Calls of active or inactive are those of the source. No cut-off for these calls is given here.
What was measured:
[1] = target: T1, Atypical chemokine receptor 3 (Homo sapiens, UniProt P25106); assay: (§1) Binding affinity to NanoLuc tagged human wild type ACKR3 expressed in HEK293G cells using furimazine as NanoLuc substrate preincubated for 1 hr in dark in presence of (R)-N-(3-(2-fluorophenyl)-2methylallyl)-3,4,5-trimethoxyN-(2-(1-methylpyrrolidin-2yl)ethyl)benzamide followed by substrate addition and measured after 5 mins by NanoBRET assay; format: cell-based
T1 sequence (P25106 whole entry): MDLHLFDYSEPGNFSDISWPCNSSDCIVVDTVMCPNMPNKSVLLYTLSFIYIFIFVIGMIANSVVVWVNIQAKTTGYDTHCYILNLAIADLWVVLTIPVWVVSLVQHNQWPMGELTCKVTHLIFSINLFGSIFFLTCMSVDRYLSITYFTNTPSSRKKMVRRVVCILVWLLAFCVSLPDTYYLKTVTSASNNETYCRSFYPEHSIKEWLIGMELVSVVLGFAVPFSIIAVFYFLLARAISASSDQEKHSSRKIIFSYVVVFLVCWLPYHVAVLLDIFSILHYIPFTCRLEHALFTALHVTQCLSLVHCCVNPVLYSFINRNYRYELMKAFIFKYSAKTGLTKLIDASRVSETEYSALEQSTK

[2] = target: T1, Atypical chemokine receptor 3; assay: Binding affinity to NanoLuc tagged human wild type ACKR3 expressed in HEK293G cells using furimazine as NanoLuc substrate preincubated for 1 hr in dark followed by substrate addition and measured after 5 mins by NanoBRET assay; format: cell-based; settings: time 65.0 min
[3] = target: T1, Atypical chemokine receptor 3; assay: as §1, with “NanoBRET competition binding” for “NanoBRET”; format: cell-based
[4] = target: T1, Atypical chemokine receptor 3; assay: Binding affinity to ACKR3 (unknown origin) by [125I] CXCL12 displacement assay
[5] = target: T1, Atypical chemokine receptor 3; assay: Binding affinity to N-terminal SNAP-tagged ACKR3 (unknown origin) transfected in HEK293T cells assessed as internalization by measuring receptor colocalized intracellular fluorescence at 50 to 100 nM preincubated with (R)-N-(3-(2-fluorophenyl)-2-methylallyl)-3,4,5-trimethoxy-N-(2-(1-methylpyrrolidin-2-yl)ethyl)benzamide for 30 mins followed by fluorescent compound addition and further incubated for 30 mins by confocal microscopic analysis; format: cell-based; settings: dose 50-100 nM
[6] = target: T1, Atypical chemokine receptor 3; assay: Binding affinity to N-terminal SNAP-tagged ACKR3 (unknown origin) transfected in HEK293T cells assessed as internalization by measuring receptor colocalized intracellular fluorescence at 50 to 100 nM incubated for 30 mins by confocal microscopic analysis; format: cell-based; settings: dose 50-100 nM

| SMILES | Kd [1] [nM] | Activity [2] | Ki [3] [nM] | other results |
| --- | --- | --- | --- | --- |
| COc1cc(C(=O)N(CC[C@H]2CCCN2C)C/C(C)=C/c2ccccc2F)cc(OCCOCCOCCNC(=O)CCCCCNC(=O)CCC2=[N+]3C(C=C2)Cc2c(C)cc(C)n2[B-]3(F)F)c1OC (some centres undefined) | 151 | Active |  |  |
| COc1ccc(C(=O)N(CCC2CCCN2C)C/C(C)=C/c2cccc(F)c2)cc1OC (centres undefined) |  |  | 631 |  |
| COc1cc(C(=O)N(CC[C@H]2CCCN2C)C/C(C)=C/c2ccccc2F)cc(OC)c1OC |  |  |  | EC50 [4]: 5.01 nM |
| COc1cc(C(=O)N(CC[C@@H]2CCCN2C)C/C(C)=C/c2ccccc2F)cc(OC)c1OC |  |  |  | EC50 [4]: 20 nM |
| COc1cc(C(=O)N(CC[C@H]2CCCN2C)C/C(C)=C/c2ccccc2F)cc(OCCNC(=O)CCCCCNC(=O)CCC2=[N+]3C(=Cc4c(C)cc(C)n4[B-]3(F)F)C=C2)c1OC | 12.9 | Active |  | Activity [5]: inactive; Activity [6]: Active |
| Cc1ccc(C(=O)c2cn(Cc3cccc(Br)n3)c3ccccc3c2=O)cc1C |  |  | 39.8 |  |
| C/C(=C\c1ccccc1)CN(CCC1CCCN1C)C(=O)c1ccc2c(c1)OCCO2 (centres undefined) |  |  | 10000 |  |

Now from value to compound, other results behind:

| Kd [1] [nM] | Activity [2] | Ki [3] [nM] | SMILES | other results |
| --- | --- | --- | --- | --- |
| 81.3 | Active |  | COc1cc(C(=O)N(CC[C@H]2CCCN2C)C/C(C)=C/c2ccccc2F)cc(OCCOCCNC(=O)CCCCCNC(=O)CCC2=[N+]3C(=Cc4c(C)cc(C)n4[B-]3(F)F)C=C2)c1OC |  |
|  |  | 251 | COc1ccc(C(=O)N(CCC2CCCN2C)C/C(C)=C/c2ccccc2F)cc1OC (centres undefined) |  |

Reference: ChEMBL document CHEMBL5357017, “Small Molecule Fluorescent Ligands for the Atypical Chemokine Receptor 3 (ACKR3)” (ACS Med Chem Lett, 2024)
